US12187816B2, “Macrocyclic compounds and methods of use thereof” (Genentech, Inc., priority 2020, dated 2025)
Starred links: 1 amine or outer side, 2 acyl side, 3 side chain; linkers in the order of their positions; H or OH if unused. Non-standard residues stand in square brackets, D forms with d. Residues, ends and D or L forms follow the SMILES beside them. *: point of attachment. JQ1acid = Cc1sc2c(c1C)C(c1ccc(Cl)cc1)=N[C@@H](CC(=O)*)c1nnc(C)n1-2; X1 = CC(C)(C)[C@@H](C(=O)[*:2])n1cc(COCCN[*:1])nn1; X13 = Cc1ncsc1-c1ccc(C[C@@H](N[*:1])C(=O)[*:2])cc1; dBip = N[C@H](Cc1ccc(-c2ccccc2)cc1)C(=O)O; dLys(N3) = [N-]=[N+]=NCCCC[C@@H](N)C(=O)O; Hyp = O=C(O)[C@@H]1C[C@@H](O)CN1; Tle = CC(C)(C)[C@H](N)C(=O)O; dDap = NC[C@@H](N)C(=O)O; AEA = NCCOCC(=O)O

Target: T1, BRD4 (Homo sapiens, UniProt O60885)
T1 construct: Mean 488 intensity of BRD4 quantitated in nuclear region; endogenous in cells; host or cells: EoL-1 eosinophilic leukemia cells
Experiment: BRD4 degradation assay in EOL1 cells (immunofluorescence imaging)
Assay type: cell-based
Conditions: EoL-1 eosinophilic leukemia cells, 4 hours treatment, nuclear BRD4 immunofluorescence
In short: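 EoL-1 cells treated 4 h at 37 °C with 20-point 1/3 serial dilutions (0.2% DMSO) in RPMI/10% FBS, then fixed and immunostained for BRD4. Mean nuclear BRD4 intensity measured by high-content imaging, with Hoechst nuclear masking. DMSO and no-primary-antibody controls define 0 and 100%; DC50 and maximal effect from dose-response fit.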

SMILES | DC50
Cc1ncsc1-c1ccc([C@H]2NC(=O)[C@@H]3C[C@@H](O)CN3C(=O)[C@H](C(C)(C)C)NC(=O)CSC[C@H](C(N)=O)NC(=O)[C@H](NC(=O)C[C@@H]3N=C(c4ccc(Cl)cc4)c4c(sc(C)c4C)-n4c(C)nnc43)NC(=O)CNC2=O)cc1 [Compound 69] | > 20000 nM
Cc1sc2c(c1C)C(c1ccc(Cl)cc1)=N[C@@H](CC(=O)NC[C@H]1NC(=O)[C@@H](CCCCN=[N+]=[N-])NC(=O)[C@@H](Cc3ccc(-c4ccccc4)cc3)NC(=O)[C@@H]3C[C@@H](O)CN3C(=O)[C@H](C(C)(C)C)NC(=O)COCCNC1=O)c1nnc(C)n1-2 [Compound 71] (cyclo([AEA][Tle][Hyp][dBip][dLys(N3)][dDap](JQ1acid))) | < 1000 nM
Cc1sc2c(c1C)C(c1ccc(Cl)cc1)=N[C@@H](CC(=O)NC[C@H]1NC(=O)[C@@H](CCCCN)NC(=O)[C@@H](Cc3ccc(-c4ccccc4)cc3)NC(=O)[C@@H]3C[C@@H](O)CN3C(=O)[C@H](C(C)(C)C)NC(=O)COCCNC1=O)c1nnc(C)n1-2 [Compound 72] (cyclo([AEA][Tle][Hyp][dBip][dK][dDap](JQ1acid))) | < 1000 nM
Cc1sc2c(c1C)C(c1ccc(Cl)cc1)=N[C@@H](CC(=O)N(C)C[C@H]1NC(=O)CNC(=O)[C@@H](Cc3ccc(-c4ccccc4)cc3)NC(=O)[C@@H]3C[C@@H](O)CN3C(=O)[C@H](C(C)(C)C)n3cc(nn3)COCCNC1=O)c1nnc(C)n1-2 [Compound 203] | < 1000 nM
Cc1sc2c(c1C)C(c1ccc(Cl)cc1)=N[C@@H](CC(=O)N(C)C[C@H]1NC(=O)CNC(=O)[C@@H](Cc3ccc(-c4ccccc4)cc3)NC(=O)[C@@H]3C[C@@H](O)CN3C(=O)[C@H](C(C)(C)C)n3cc(nn3)COCCN(C)C1=O)c1nnc(C)n1-2 [Compound 204] | > 20000 nM
Cc1sc2c(c1C)C(c1ccc(Cl)cc1)=N[C@@H](CC(=O)NC[C@H]1CCCNC(=O)[C@@H](Cc3ccc(-c4ccccc4)cc3)NC(=O)[C@@H]3C[C@@H](O)CN3C(=O)[C@H](C(C)(C)C)n3cc(nn3)COCCNC1=O)c1nnc(C)n1-2 [Compound 206] | < 50 nM
Cc1sc2c(c1C)C(c1ccc(Cl)cc1)=N[C@@H](CC(=O)NC[C@H]1CCCNC(=O)[C@@H](Cc3ccc(-c4ccccc4)cc3)NC(=O)[C@@H]3C[C@@H](O)CN3C(=O)[C@H](C(C)(C)C)n3cc(nn3)C3(CC3)CNC1=O)c1nnc(C)n1-2 [Compound 207] | < 50 nM
Cc1sc2c(c1C)C(c1ccc(Cl)cc1)=N[C@@H](CC(=O)NC[C@H]1CCCNC(=O)[C@@H](Cc3ccc(-c4ccccc4)cc3)NC(=O)[C@@H]3C[C@@H](O)CN3C(=O)[C@H](C(C)(C)C)n3cc(nn3)C3(CC3)CNC(=O)CNC1=O)c1nnc(C)n1-2 [Compound 208] | < 1000 nM

Next, values leading:

DC50 | SMILES
< 50 nM | Cc1ncsc1-c1ccc(C[C@H]2NC(=O)[C@@H]3C[C@@H](O)CN3C(=O)[C@H](C(C)(C)C)NC(=O)COCCNC(=O)[C@@H](CNC(=O)C[C@@H]3N=C(c4ccc(Cl)cc4)c4c(sc(C)c4C)-n4c(C)nnc43)NC(=O)[C@@H](C)NC2=O)cc1 [Compound 70] (cyclo([AEA][Tle][Hyp][X13][dA][dDap](JQ1acid)))
< 50 nM | Cc1sc2c(c1C)C(c1ccc(Cl)cc1)=N[C@@H](CC(=O)NC[C@H]1NC(=O)CNC(=O)[C@@H](Cc3ccc(-c4ccccc4)cc3)NC(=O)[C@@H]3C[C@@H](O)CN3C(=O)[C@H](C(C)(C)C)n3cc(nn3)COCCNC1=O)c1nnc(C)n1-2 [Compound 200]
< 50 nM | Cc1sc2c(c1C)C(c1ccc(Cl)cc1)=N[C@@H](CC(=O)NC[C@H]1NC(=O)[C@@H](C)NC(=O)[C@@H](Cc3ccc(-c4ccccc4)cc3)NC(=O)[C@@H]3C[C@@H](O)CN3C(=O)[C@H](C(C)(C)C)n3cc(nn3)COCCNC1=O)c1nnc(C)n1-2 [Compound 201]
< 50 nM | Cc1sc2c(c1C)C(c1ccc(Cl)cc1)=N[C@@H](CC(=O)NC[C@H]1NC(=O)[C@@H](C(C)C)NC(=O)[C@@H](Cc3ccc(-c4ccccc4)cc3)NC(=O)[C@@H]3C[C@@H](O)CN3C(=O)[C@H](C(C)(C)C)n3cc(nn3)COCCNC1=O)c1nnc(C)n1-2 [Compound 202] (cyclo([Hyp][dBip][dV][dDap](JQ1acid)[X1]))
< 50 nM | Cc1sc2c(c1C)C(c1ccc(Cl)cc1)=N[C@@H](CC(=O)NC[C@H]1NC(=O)CNC(=O)[C@@H](Cc3ccc(-c4ccccc4)cc3)NC(=O)[C@@H]3C[C@@H](O)CN3C(=O)[C@H](C(C)(C)C)n3cc(nn3)COCCN(C)C1=O)c1nnc(C)n1-2 [Compound 205]
